# Reference: publication PMC12110735 (Diseases, 2025)
# Entries after “also recorded” stand apart in the source; their conditions may differ. Where two headings read alike, the source gives them in different places.
# Columns and labels:
# [1] = test system: HCC70 basal triple-negative breast cancer (TNBC) cell line; assay: Cytotoxicity, resazurin assay, 96 h, HCC70; type: cell-based; details: for IC50: 96 h, read-out: HCC70 (IC50 and SD); for Selectivity Index (SI) HCC70: IC50 in MCF12A / IC50 in HCC70
# Method: (§1) The cytotoxicity and IC50 values of the isolated compounds were evaluated in three cell lines, namely, the HCC70 basal triple-negative breast cancer (TNBC) cell line (ATCC: CRL-2315), the hormone receptor-positive breast cancer MCF-7 cell line (ATCC: HTB-22) and the non-tumorigenic breast epithelial cell line MCF12A (ATCC: CRL-10782) using the resazurin assay. The cells were seeded at a density of 5000 cells/well in a 96-well plate and allowed to attach overnight at 37 °C and 9% CO2. The cells were then treated with DMSO as vehicle control (0.2% vM), paclitaxel (Sigma-Aldrich, St. Louis, USA) as a positive control (0.32 to 200 nm) and a six-point range concentration (0.32 to 200 μM) of the isolated pure compounds and incubated for 96 h at 37 DC in a humidified 9% CO2 incubator. Resazurin ([…]) was added to the cells, and the cells were incubated for 2–4 h at 37 °C in 9% CO2. Fluorescence readings were obtained on a Spectramax spectrophotometer (excitation and emission wavelength set to 560 nm and 590 nm, respectively). The experiment was performed in triplicate, and the data was analyzed using GraphPad Prism Inc., (Version 4, USA) with a half-maximal inhibitory concentration (IC50 values) determined by non-linear regression. A selectivity index (SI) was determined for each compound to determine its therapeutic significance in cancerous cells. It was calculated as follows: Selectivity index (SI) = IC50 of compound in MCF12A/IC50 of compound in cancer line
# (§2) SI function is a crucial metric for assessing a compound’s potential safety, with values below 1 indicating toxicity and those above 10 implying high selectivity for further investigation.
# [2] = test system: non-tumorigenic breast epithelial cell line MCF12A; assay: Cytotoxicity, resazurin assay, 96 h, MCF-12A; type: cell-based; details: MCF-12A cells; for IC50: 96 h, read-out: MCF-12A (IC50 and SD)
# Method: as §1, §2
# [3] = test system: hormone receptor-positive breast cancer MCF-7 cell line; assay: Cytotoxicity, resazurin assay, 96 h, MCF-7; type: cell-based; details: for IC50 / cytotoxic activity against MCF-7 (in words): MCF-7 cells; for IC50: 96 h, read-out: MCF-7 (IC50 and SD); for Selectivity Index (SI) MCF-7: IC50 in MCF12A / IC50 in MCF-7
# Method: as §1, §2
# [4] = test system: NF-kappa B; details: cited from earlier work
# [5] = test system: leukemic cell line (L1210); parameters: method as in PMID 12612427; details: cited from earlier work
# [6] = Homo sapiens, HCC70, 96 h, HCC70 cells, resazurin, triplicate
# [7] = Homo sapiens, MCF-12A, resazurin, triplicate
# [8] = Homo sapiens, MCF7, 96 h, resazurin, triplicate
# [9] = resazurin, triplicate, listed as 13R-Nepetaefolin (2)
compound,measurement,setting,value
"CC(=O)O[C@@H]1C[C@@]2(CO2)[C@]2(CC[C@@]3(C=COC3)O2)[C@]23CCC[C@](C)(C(=O)OC2)[C@H]13 [Compound 1, 13S-nepetaefolin]",IC50,[1]; [6],24600 ± 1180 nM
same,Selectivity Index (SI) HCC70,[1]; listed as 13S-Nepetaefolin (1),1.08
same,Selectivity Index (SI) HCC70,[1]; listed as 13S-nepetaefolin (1),1.077
same,IC50,[2]; [7],26600 ± 1320 nM
same,IC50,[3]; [8],> 200000 nM
same,Selectivity Index (SI) MCF-7,[3],<0.132
same,IC50,"[3]; resazurin, triplicate, listed as 13S-Nepetaefolin (1)",> 200000 nM
"CC(=O)O[C@@H]1C[C@@]2(CO2)[C@]2(CC[C@]3(C=COC3)O2)[C@]23CCC[C@](C)(C(=O)OC2)[C@H]13 [Compound 2, nepetaefolin]",cytotoxic activity against HCC70 (in words),[1]; HCC70 cells,no activity; also recorded: no such effects
same,IC50,"[1]; HCC70 cells, resazurin, triplicate, listed as 13R-Nepetaefolin (2)",> 200000 nM
same,IC50,[1]; [6],> 200000 nM
same,IC50,[2]; [7],> 200000 nM
same,IC50,[2]; [9],> 200000 nM
same,IC50,[3]; [8],> 200000 nM
same,IC50,[3]; [9],> 200000 nM
"CC(=O)O[C@@H]1C[C@@H](C)[C@](O)(CCc2ccoc2)[C@]23CCC[C@](C)(C(=O)OC2)[C@H]13 [Compound 3, dubiin]",IC50,[1]; [6],127900 ± 1230 nM
same,Selectivity Index (SI) HCC70,[1]; listed as dubiin (3),1.564
same,IC50,[2]; [7],> 200000 nM
same,cytotoxic activity against MCF-12A (in words),[2],non-toxic
same,IC50,[3]; [8],> 200000 nM
same,cytotoxic activity against MCF-7 (in words),[3],non-toxic
"CC(=O)O[C@@H]1C[C@@]2(CO2)[C@](O)(CCc2ccoc2)[C@]23CCC[C@](C)(C(=O)OC2)[C@H]13 [Compound 4, nepetaefuran]",IC50,[1]; [6],73700 ± 1100 nM
same,Selectivity Index (SI) HCC70,[1]; listed as nepetaefuran (4),2.715
same,"anti-inflammatory activity, LPS pathway / NF-kappa B transactivation (in words)",[4],suppression of the transactivation of NF-kappa B
same,IC50,[2]; [7],> 200000 nM
same,cytotoxic activity against MCF-12A (in words),[2],no cytotoxic activity
same,IC50,[3]; [8],> 200000 nM
same,cytotoxic activity against MCF-7 (in words),[3],no cytotoxic activity
"C[C@@]12CCC[C@]3(C)C(=O)O[C@H](C[C@@]4(CO4)[C@]1(O)CCc1ccoc1)[C@H]23 [Compound 5, leonotin]",cytotoxic activity against leukemic cell lines (in words),[5],cytotoxic activity
"CC(=O)O[C@H]1C(=O)[C@@]2(C)[C@H]([C@H](OC(=O)c3ccccc3)[C@]3(O)C[C@H](OC(=O)[C@H](O)[C@@H](NC(=O)c4ccccc4)c4ccccc4)C(C)=C1C3(C)C)[C@]1(OC(C)=O)CO[C@@H]1C[C@@H]2O [Paclitaxel, paclitaxel, reference compound]",IC50,"[1]; Homo sapiens, HCC70, 96 h, HCC70 cells, positive control in nM",3.92 ± 1.03 nM
same,Selectivity Index (SI) HCC70,[1],4.12
same,IC50,"[2]; Homo sapiens, MCF-12A, positive control in nM",16.2 ± 1.08 nM
same,IC50,"[3]; Homo sapiens, MCF7, 96 h, positive control in nM",2.41 ± 1.11 nM
same,Selectivity Index (SI) MCF-7,[3],6.71
leonotinin [Compound 6],cytotoxic activity against leukemic cell lines (in words),[5],cytotoxic activity
same,IC50,"[1]; HCC70 cells, resazurin, triplicate",94900 ± 1100 nM
same,Selectivity Index (SI) HCC70,[1]; listed as leonotinin (6),2.108
same,"anti-inflammatory activity, LPS pathway / NF-kappa B transactivation (in words)",[4],suppression of the transactivation of NF-kappa B
same,cytotoxic activity against MCF-12A (in words),[2],no cytotoxic activity
same,IC50,"[2]; resazurin, triplicate",> 200000 nM
same,cytotoxic activity against MCF-7 (in words),[3],no cytotoxic activity
same,IC50,"[3]; resazurin, triplicate",> 200000 nM
